According to the supplement of paper PMC10307832:

Assays:
Test in all cases: relative viability (nuclei count vs DMSO), 5 days (fraction); higher = more cells survive
Neratinib + Lapatinib = compound: CCOc1cc2ncc(C#N)c(Nc3ccc(OCc4ccccn4)c(Cl)c3)c2cc1NC(=O)/C=C/CN(C)C [Neratinib] + CS(=O)(=O)CCNCc1ccc(-c2ccc3ncnc(Nc4ccc(OCc5cccc(F)c5)c(Cl)c4)c3c2)o1 [Lapatinib] (partner 2 µM)
Procedure, shortened: (§1)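 Lung cancer cell lines in 1536-well plates got either a single drug or a fixed anchor-drug dose together with five library-drug doses (not always all listed) in √10 steps, by pin tool, on the day after seeding. Nuclei were counted after 5 days, and relative viability is the treated-to-vehicle ratio of nuclei counts. Values are medians of duplicate plates.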

Neratinib + Decitabine = compound: CCOc1cc2ncc(C#N)c(Nc3ccc(OCc4ccccn4)c(Cl)c3)c2cc1NC(=O)/C=C/CN(C)C [Neratinib] + Nc1ncn([C@H]2C[C@H](O)[C@@H](CO)O2)c(=O)n1 [Decitabine] (partner 2 µM)
Procedure, shortened: as §1

Neratinib + Olaparib = compound: CCOc1cc2ncc(C#N)c(Nc3ccc(OCc4ccccn4)c(Cl)c3)c2cc1NC(=O)/C=C/CN(C)C [Neratinib] + O=C(c1cc(Cc2n[nH]c(=O)c3ccccc23)ccc1F)N1CCN(C(=O)C2CC2)CC1 [Olaparib] (partner 8 µM)
Procedure, shortened: as §1

Neratinib + AZD7762 = compound: CCOc1cc2ncc(C#N)c(Nc3ccc(OCc4ccccn4)c(Cl)c3)c2cc1NC(=O)/C=C/CN(C)C [Neratinib] + NC(=O)Nc1cc(-c2cccc(F)c2)sc1C(=O)N[C@H]1CCCNC1 [AZD7762] (partner 0.2 µM)
Procedure, shortened: as §1

Cell Line | relative viability (Neratinib + Lapatinib; first compound 0.01 µM) | relative viability (Neratinib + Lapatinib; first compound 0.03162 µM) | relative viability (Neratinib + Lapatinib; first compound 0.1 µM) | relative viability (Neratinib + Lapatinib; first compound 0.3162 µM) | relative viability (Neratinib + Lapatinib; first compound 1 µM) | relative viability (Neratinib + Decitabine; first compound 0.01 µM) | relative viability (Neratinib + Decitabine; first compound 0.03162 µM) | relative viability (Neratinib + Decitabine; first compound 0.1 µM) | relative viability (Neratinib + Decitabine; first compound 0.3162 µM) | relative viability (Neratinib + Decitabine; first compound 1 µM) | relative viability (Neratinib + Olaparib; first compound 0.01 µM) | relative viability (Neratinib + Olaparib; first compound 0.03162 µM) | relative viability (Neratinib + Olaparib; first compound 0.1 µM) | relative viability (Neratinib + Olaparib; first compound 0.3162 µM) | relative viability (Neratinib + Olaparib; first compound 1 µM) | relative viability (Neratinib + AZD7762; first compound 0.01 µM) | relative viability (Neratinib + AZD7762; first compound 0.03162 µM) | relative viability (Neratinib + AZD7762; first compound 0.1 µM) | relative viability (Neratinib + AZD7762; first compound 0.3162 µM) | relative viability (Neratinib + AZD7762; first compound 1 µM)
HCC-44 | 1.04 | 1.15 | 0.792 | 0.963 | 1.07 | 0.993 | 0.983 | 0.897 | 0.922 | 1.09 | 1.04 | 1.03 | 0.899 | 0.94 | 0.979 | 0.961 | 0.995 | 0.947 | 1.05 | 1.12
HCC-78 | 0.89 | 1.09 | 0.788 | 0.952 | 0.398 | 0.816 |  | 0.651 | 0.691 | 0.649 | 0.996 | 0.87 | 0.817 | 0.798 | 0.396 | 0.797 | 0.602 | 0.541 | 0.424 | 0.415
HCC-366 | 1.27 | 1.18 | 0.901 | 1.09 | 1.06 | 0.361 | 0.429 | 0.33 | 0.368 | 0.471 | 0.36 | 0.324 | 0.267 | 0.347 | 0.404 |  | 0.307 | 0.147 | 0.232 | 0.169
HCC-827 | 0.223 | 0.229 | 0.17 | 0.174 | 0.165 | 0.375 | 0.354 | 0.271 | 0.243 | 0.217 | 0.624 | 0.763 | 0.665 | 0.272 | 0.107 | 0.217 | 0.236 | 0.132 | 0.129 | 0.132
HOP-62 |  |  | 0.879 | 0.825 | 1.21 | 0.215 | 0.222 | 0.198 |  | 0.215 | 0.416 | 0.459 | 0.367 | 0.412 | 0.344 | 0.672 | 0.525 | 0.559 |  | 0.443
LC-2-ad | 0.993 | 0.974 | 0.783 | 1.06 | 0.978 | 0.931 | 0.815 | 0.72 | 0.7 |  | 0.777 |  | 0.651 | 0.756 | 0.785 | 0.832 | 0.894 |  | 0.551 | 0.327
LCLC-97TM1 | 1.29 | 1.01 | 1.02 | 0.637 | 0.275 | 0.258 | 0.251 | 0.276 |  | 0.215 | 0.31 | 0.437 | 0.329 |  | 0.234 | 0.224 | 0.251 | 0.218 | 0.207 | 0.304
LK-2 | 1.28 | 1.2 | 0.95 | 0.664 | 0.578 | 0.321 | 0.372 | 0.305 | 0.225 | 0.24 | 0.941 | 0.949 | 0.747 | 0.553 | 0.433 | 0.358 | 0.309 | 0.368 | 0.145 | 0.175
LOU-NH91 | 0.809 | 0.776 | 0.733 | 0.743 | 0.567 | 0.794 | 0.775 | 0.68 | 0.673 | 0.604 | 0.977 | 0.944 |  | 0.678 | 0.632 | 0.791 | 0.728 | 0.717 | 0.664 | 0.496
LU99A | 1.04 | 1.05 | 0.692 | 0.587 | 0.385 |  | 1.12 | 0.752 | 0.952 | 0.578 | 0.251 | 0.286 | 0.246 | 0.268 |  | 0.426 | 0.403 | 0.314 | 0.374 | 0.263
LXF-289 |  | 0.964 | 0.809 | 0.924 | 0.937 | 0.382 | 0.396 | 0.39 | 0.349 | 0.421 | 1.12 | 1.28 | 0.931 | 1.06 | 0.889 | 1.09 | 1.12 | 1.04 | 1.21 | 
NCI-H23 | 1.05 | 0.932 | 1.09 | 1.02 | 0.762 | 0.325 | 0.298 | 0.289 | 0.404 | 0.264 | 0.283 | 0.284 | 0.317 | 0.328 | 0.314 | 0.253 | 0.329 | 0.25 | 0.217 | 0.191
NCI-H322M | 0.587 | 0.569 | 0.522 | 0.567 | 0.449 | 0.678 | 0.643 | 0.646 | 0.558 | 0.39 | 0.715 |  | 0.785 | 0.512 | 0.415 | 0.49 | 0.544 | 0.503 | 0.409 | 0.437
NCI-H358 | 0.502 | 0.47 | 0.42 | 0.405 | 0.237 | 0.205 | 0.186 |  | 0.129 | 0.117 | 0.552 | 0.569 | 0.409 | 0.238 | 0.162 | 0.533 | 0.508 | 0.358 | 0.257 | 0.223
NCI-H460 | 1.15 | 1.38 |  | 0.921 | 0.557 | 0.559 | 0.527 | 0.522 | 0.459 | 0.449 | 0.428 | 0.43 | 0.383 | 0.415 | 0.419 | 0.654 | 0.718 | 0.639 | 0.54 | 0.265
NCI-H596 | 1.2 | 1.06 |  | 1.13 | 0.859 | 1.88 | 1.1 | 1 | 0.986 | 0.863 | 0.633 | 0.726 | 0.622 | 0.659 | 0.574 | 1.07 | 1.27 | 0.745 | 1.1 | 0.805
NCI-H647 | 0.989 | 1.27 | 0.857 | 1 | 0.802 | 0.438 | 0.453 | 0.364 | 0.358 | 0.371 | 0.426 | 0.518 | 0.4 | 0.294 | 0.263 | 0.532 | 0.568 | 0.466 | 0.457 | 0.277
